According to patent US8202873B2, “2-[4-(pyrazol-4-ylalkyl)piperazin-1-yl]-3-phenyl pyrazines as 5-HT7 receptor antagonists” (Eli Lilly and Company, priority 2007, dated 2012):
Where “and” joins values, the source holds several entries; their conditions need not be identical. Identical values can stand only once.

Key:
5-HT2B = target: T1, 5-HT2B (Homo sapiens, UniProt P41595); experiment: Radioligand receptor binding assay, 5-HT2B
T1 construct: expressed in transfected cells
Protocol: (§1) [^3H] […] The reactions are incubated at room temperature for 3 hr. and then counted in a Trilux Microbeta™ scintillation counter to detect receptor-bound radioligand. Binding data is analyzed by computer-assisted 4 parameter fit analysis (ID Business Solutions Ltd, Guildford, Surrey, UK). […]
(§2) Affinity for other serotonin receptor subtypes as well as for alpha 1 & 2 adrenergic receptors can readily be determined by modification of the above described radioligand receptor binding assay using membranes derived from cells stably expressing the desired receptor subtype including the 5-HT1A, 5-HT1B, and 5-HT1D subtypes, as well as the 5-HT2A, 5-HT2B, 5-HT2C, 5-HT4, 5-HT5, and 5-HT6 receptor subtypes. […] The binding affinities of compounds of the present invention may be determined at these additional receptor types and are found to generally have selectivity ratios ≧2.0 against other serotonergic receptors. […]

alpha 1 adrenergic [1] = target: T2, alpha 1 adrenergic; experiment: Radioligand receptor binding assay, alpha 1 adrenergic (second line); conditions: alpha 1 adrenergic (second line, r13)
T2 construct: Ki; other: alpha 1 adrenergic (second line, r13)
Protocol: as §1, §2

5-HT1B = target: T3, 5-HT1B (Homo sapiens, UniProt P28222); experiment: Radioligand receptor binding assay, 5-HT1B
T3 construct: expressed in transfected cells
T3 sequence (P28222 whole entry, species assumed): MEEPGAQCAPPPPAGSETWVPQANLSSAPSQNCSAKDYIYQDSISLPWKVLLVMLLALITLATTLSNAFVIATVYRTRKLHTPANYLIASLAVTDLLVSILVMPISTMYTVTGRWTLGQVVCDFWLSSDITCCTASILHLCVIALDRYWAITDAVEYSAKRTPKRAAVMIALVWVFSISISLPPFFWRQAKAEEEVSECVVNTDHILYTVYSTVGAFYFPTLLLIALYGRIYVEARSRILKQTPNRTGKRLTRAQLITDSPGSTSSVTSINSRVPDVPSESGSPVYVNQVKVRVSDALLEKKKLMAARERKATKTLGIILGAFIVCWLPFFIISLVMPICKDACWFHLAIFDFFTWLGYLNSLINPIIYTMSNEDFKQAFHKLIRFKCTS
Protocol: as §1, §2

alpha 1 adrenergic [2] = target: T4, alpha 1 adrenergic; experiment: Radioligand receptor binding assay, alpha 1 adrenergic (first line); conditions: alpha 1 adrenergic (first line, r12)
T4 construct: Ki; other: alpha 1 adrenergic (first line, r12)
Protocol: as §1, §2

5-HT1A = target: T5, 5-HT1A (Homo sapiens, UniProt P08908); experiment: Radioligand receptor binding assay, 5-HT1A
T5 construct: expressed in transfected cells
T5 sequence (P08908 1-422): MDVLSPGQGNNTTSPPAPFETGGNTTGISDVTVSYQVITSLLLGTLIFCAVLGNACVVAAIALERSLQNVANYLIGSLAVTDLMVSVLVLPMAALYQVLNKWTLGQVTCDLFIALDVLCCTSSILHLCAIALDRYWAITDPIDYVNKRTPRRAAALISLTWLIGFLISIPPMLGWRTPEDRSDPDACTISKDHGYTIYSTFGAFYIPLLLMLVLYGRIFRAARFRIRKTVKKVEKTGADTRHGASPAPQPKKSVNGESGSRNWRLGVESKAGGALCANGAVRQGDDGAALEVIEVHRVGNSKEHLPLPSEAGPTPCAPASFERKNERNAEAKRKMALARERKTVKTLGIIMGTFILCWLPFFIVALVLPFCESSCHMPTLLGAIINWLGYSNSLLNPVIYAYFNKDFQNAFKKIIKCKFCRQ
Protocol: as §1, §2

5-HT4 = target: T6, 5-HT4 (Homo sapiens, UniProt Q13639); experiment: Radioligand receptor binding assay, 5-HT4
T6 construct: expressed in transfected cells
T6 sequence (Q13639 whole entry, species assumed): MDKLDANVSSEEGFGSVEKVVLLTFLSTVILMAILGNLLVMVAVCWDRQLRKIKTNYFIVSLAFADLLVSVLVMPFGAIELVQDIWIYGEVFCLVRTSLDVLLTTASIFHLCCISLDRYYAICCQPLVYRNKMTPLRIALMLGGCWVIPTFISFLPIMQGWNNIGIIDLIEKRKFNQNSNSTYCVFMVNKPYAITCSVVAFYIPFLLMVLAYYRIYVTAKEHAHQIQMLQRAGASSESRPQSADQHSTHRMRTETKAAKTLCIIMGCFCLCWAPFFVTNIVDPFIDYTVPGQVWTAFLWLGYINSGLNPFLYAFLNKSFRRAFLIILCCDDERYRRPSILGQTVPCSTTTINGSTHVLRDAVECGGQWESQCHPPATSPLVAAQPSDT
Protocol: as §1, §2

5-HT2A = target: T7, 5-HT2A (Homo sapiens, UniProt P28223); experiment: Radioligand receptor binding assay, 5-HT2A
T7 construct: expressed in transfected cells
T7 sequence (P28223 whole entry, species assumed): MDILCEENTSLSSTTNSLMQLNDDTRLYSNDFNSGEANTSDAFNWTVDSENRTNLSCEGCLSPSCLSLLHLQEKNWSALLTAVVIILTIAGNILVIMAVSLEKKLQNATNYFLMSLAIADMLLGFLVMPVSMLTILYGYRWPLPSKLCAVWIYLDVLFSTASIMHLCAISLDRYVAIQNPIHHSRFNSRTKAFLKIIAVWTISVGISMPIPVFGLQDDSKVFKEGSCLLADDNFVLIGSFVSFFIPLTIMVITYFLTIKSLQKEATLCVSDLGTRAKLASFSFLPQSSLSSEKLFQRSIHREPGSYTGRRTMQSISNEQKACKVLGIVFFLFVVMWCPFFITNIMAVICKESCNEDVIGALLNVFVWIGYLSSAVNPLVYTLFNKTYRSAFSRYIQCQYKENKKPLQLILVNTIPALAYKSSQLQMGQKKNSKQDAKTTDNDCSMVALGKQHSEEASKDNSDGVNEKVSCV
Protocol: as §1, §2

5-HT7 receptor = target: T8, 5-HT7 receptor (Homo sapiens, UniProt P34969); experiment: 5-HT7 receptor affinity: radioligand binding assay ([3H]5-HT, SPA); conditions: [3H]5-HT competition binding
T8 construct: expressed in transfected cells; host or cells: AV-12 cells
T8 sequence (P34969 whole entry): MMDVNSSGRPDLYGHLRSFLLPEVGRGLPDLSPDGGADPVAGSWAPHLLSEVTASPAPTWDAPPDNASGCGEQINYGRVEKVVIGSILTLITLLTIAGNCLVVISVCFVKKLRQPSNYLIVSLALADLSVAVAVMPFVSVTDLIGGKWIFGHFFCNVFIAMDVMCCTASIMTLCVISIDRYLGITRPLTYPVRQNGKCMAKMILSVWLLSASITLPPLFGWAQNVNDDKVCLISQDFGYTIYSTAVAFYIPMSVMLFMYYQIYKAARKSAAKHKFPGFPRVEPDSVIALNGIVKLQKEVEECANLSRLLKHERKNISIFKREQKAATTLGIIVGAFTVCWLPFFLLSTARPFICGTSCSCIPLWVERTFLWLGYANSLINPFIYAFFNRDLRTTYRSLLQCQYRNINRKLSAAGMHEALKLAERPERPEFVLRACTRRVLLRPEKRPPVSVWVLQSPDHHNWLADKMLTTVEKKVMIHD
Protocol: Membranes for affinity and antagonist activity assays are prepared essentially as follows. AV-12 cells, stably expressing the 5-HT7 receptor, are grown as a monolayer in 5×T-150 flasks in DMEM/F12 (3:1) 5% FBS, 20 mM HEPES, […], […]. After growing to 90% confluence the media is removed and replaced with Hybritech media containing 2% horse serum, […] dextran sulfate, 1 mg/mL nucellin, 1 mg/mL human transferrin (partially iron saturated), […], 20 mM HEPES, […] geneticin, 0.04% pluronic F68. The cells are grown overnight to condition the media. The next morning the conditioned media (˜150 mL total) is removed and set aside in a sterile container. The cells are trypsinized and collected in the conditioned media. Fresh suspension media is added to bring the total volume to 500 mL and a cell density of 5×10^5 cells/mL. […]
To prepare membranes, the above pellets are resuspended in ice-cold Tris buffer (20 mM Tris HCl, pH 7.4 at 23° C., 5 mM EDTA) and homogenized with a Wheaton tissue grinder. […] Protein concentrations are determined by the method of Bradford. […]
as §1

5-HT2C = target: T9, 5-HT2C (Homo sapiens, UniProt P28335); experiment: Radioligand receptor binding assay, 5-HT2C
T9 construct: expressed in transfected cells
T9 sequence (P28335 33-458): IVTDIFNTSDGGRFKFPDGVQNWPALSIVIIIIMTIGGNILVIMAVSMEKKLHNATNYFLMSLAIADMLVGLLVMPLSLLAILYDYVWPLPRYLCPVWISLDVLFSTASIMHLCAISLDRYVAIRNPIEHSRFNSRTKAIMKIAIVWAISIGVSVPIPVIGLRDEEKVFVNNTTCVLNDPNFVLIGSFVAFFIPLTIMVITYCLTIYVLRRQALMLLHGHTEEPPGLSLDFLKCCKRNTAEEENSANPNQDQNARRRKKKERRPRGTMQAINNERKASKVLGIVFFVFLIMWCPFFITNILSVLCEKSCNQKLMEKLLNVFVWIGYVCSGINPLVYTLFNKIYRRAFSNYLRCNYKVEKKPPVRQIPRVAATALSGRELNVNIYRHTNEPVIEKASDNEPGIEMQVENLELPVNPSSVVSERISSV
Protocol: as §1, §2

5-HT6 = target: T10, 5-HT6 (Homo sapiens, UniProt P50406); experiment: Radioligand receptor binding assay, 5-HT6
T10 construct: expressed in transfected cells
T10 sequence (P50406 whole entry, species assumed): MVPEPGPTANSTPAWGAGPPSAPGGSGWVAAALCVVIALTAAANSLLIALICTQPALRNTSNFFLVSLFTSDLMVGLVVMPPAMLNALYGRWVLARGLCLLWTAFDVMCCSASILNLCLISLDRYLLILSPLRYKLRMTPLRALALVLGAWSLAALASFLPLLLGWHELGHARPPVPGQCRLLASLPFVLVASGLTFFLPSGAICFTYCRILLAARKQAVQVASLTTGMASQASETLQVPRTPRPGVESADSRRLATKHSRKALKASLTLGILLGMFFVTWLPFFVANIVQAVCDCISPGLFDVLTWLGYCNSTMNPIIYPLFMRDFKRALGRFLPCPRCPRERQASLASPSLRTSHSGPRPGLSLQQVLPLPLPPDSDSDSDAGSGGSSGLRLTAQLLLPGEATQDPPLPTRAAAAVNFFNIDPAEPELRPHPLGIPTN
Protocol: as §1, §2

5-HT1D = target: T11, 5-HT1D (Homo sapiens, UniProt P28221); experiment: Radioligand receptor binding assay, 5-HT1D
T11 construct: expressed in transfected cells
T11 sequence (P28221 whole entry, species assumed): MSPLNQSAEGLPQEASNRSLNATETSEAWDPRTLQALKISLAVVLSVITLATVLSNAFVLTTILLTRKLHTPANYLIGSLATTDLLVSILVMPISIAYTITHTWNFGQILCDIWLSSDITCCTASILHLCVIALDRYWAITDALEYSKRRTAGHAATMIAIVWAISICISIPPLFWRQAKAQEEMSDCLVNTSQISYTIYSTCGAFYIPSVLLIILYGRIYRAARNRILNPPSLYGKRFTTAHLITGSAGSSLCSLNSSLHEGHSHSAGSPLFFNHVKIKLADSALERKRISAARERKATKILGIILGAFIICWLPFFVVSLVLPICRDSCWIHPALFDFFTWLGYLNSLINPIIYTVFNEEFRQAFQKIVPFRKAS
Protocol: as §1, §2

5-HT5 = target: T12, 5-HT5 (Homo sapiens, UniProt P47898); experiment: Radioligand receptor binding assay, 5-HT5
T12 construct: expressed in transfected cells
T12 sequence (P47898 whole entry, species assumed): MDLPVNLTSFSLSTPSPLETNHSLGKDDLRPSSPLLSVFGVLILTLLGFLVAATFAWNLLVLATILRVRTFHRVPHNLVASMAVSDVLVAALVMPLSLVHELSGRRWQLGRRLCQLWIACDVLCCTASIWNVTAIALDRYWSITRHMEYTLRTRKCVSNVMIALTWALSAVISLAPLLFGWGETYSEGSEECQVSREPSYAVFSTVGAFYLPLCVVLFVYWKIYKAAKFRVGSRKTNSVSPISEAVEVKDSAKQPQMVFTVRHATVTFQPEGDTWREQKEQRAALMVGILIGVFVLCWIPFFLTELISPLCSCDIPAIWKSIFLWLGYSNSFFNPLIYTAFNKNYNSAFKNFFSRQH
Protocol: as §1, §2

T1 sequence (P41595 whole entry, species assumed): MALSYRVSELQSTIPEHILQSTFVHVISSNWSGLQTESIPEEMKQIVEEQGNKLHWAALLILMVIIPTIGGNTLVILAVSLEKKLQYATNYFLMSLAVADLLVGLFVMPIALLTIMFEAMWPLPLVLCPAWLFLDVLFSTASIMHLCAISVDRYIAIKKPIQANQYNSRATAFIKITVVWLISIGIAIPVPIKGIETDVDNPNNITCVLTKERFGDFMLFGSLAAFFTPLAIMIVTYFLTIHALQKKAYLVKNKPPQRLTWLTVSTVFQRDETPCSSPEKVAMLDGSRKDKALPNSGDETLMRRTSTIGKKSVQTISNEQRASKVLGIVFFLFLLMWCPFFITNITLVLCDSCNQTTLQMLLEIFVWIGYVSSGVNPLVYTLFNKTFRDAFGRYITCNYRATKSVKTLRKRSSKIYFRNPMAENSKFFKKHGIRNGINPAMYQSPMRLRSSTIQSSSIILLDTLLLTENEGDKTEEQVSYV

Question: With `Cn1cc(CN2CCN(c3nccnc3-c3cccc(F)c3F)CC2)cn1` [Example 142, 4-(1-Methyl-1H-pyrazol-4-ylmethyl)-3′-(2,3-difluorophenyl)-3,4,5,6-tetrahydro-2H-[1,2′]bipyrazine] as the molecule, how does the Ki (5-HT2B) read?
Answer: The Ki was greater than 3160 nM.

Question: What about the Ki (alpha 1 adrenergic [1]) of the same molecule?
Answer: Its Ki is 933 nM.

Question: And the Ki (5-HT1B)?
Answer: The Ki was greater than 3580 nM.

Question: What about the Ki (alpha 1 adrenergic [2]) of the same molecule?
Answer: The Ki was greater than 1440 nM.

Question: What about the Ki (5-HT1A) of the same molecule?
Answer: Its Ki is 1250 nM.

Question: And the Ki (5-HT4)?
Answer: Its Ki is greater than 6310 nM.

Question: What about the Ki (5-HT2A) of the same molecule?
Answer: Its Ki is greater than 7470 nM.

Question: What about the Ki (5-HT7 receptor) of the same molecule?
Answer: The Ki was ~44 nM and 44 nM.

Question: And the Ki (5-HT2C)?
Answer: The Ki was greater than 8200 nM.

Question: And the Ki (5-HT6)?
Answer: Its Ki is greater than 1790 nM.

Question: And the Ki (5-HT1D)?
Answer: The Ki was greater than 2400 nM.

Question: And the Ki (5-HT5)?
Answer: Its Ki is greater than 7020 nM.
